Source: ChEMBL document CHEMBL1201862, “PubChem BioAssay data set” (2004)
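Tested at 5 concentrations; 48 h exposure; 96-well plates; endpoints linearly interpolated, else capped at highest concentration. GI50 marks 50% less growth.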 Calls of active or inactive are those of the source. Rule as the data show it: active = GI50 up to about 1.1 µM and inactive = higher.

Columns and labels:
Test in all cases: growth of human tumour cells (NCI), 48 h
[1] = tested on: SK-MEL-5
[2] = tested on: UACC-62
[3] = tested on: MOLT-4
[4] = tested on: EKVX
[5] = tested on: M14
[6] = tested on: TK-10
[7] = tested on: SK-MEL-2
[8] = tested on: A498
[9] = tested on: SF-539
[10] = tested on: IGROV-1
[11] = tested on: NCI/ADR-RES
[12] = tested on: CAKI-1
[13] = tested on: NCI-H460
[14] = tested on: BT-549
[15] = tested on: CCRF-CEM
[16] = tested on: MDA-MB-435
[17] = tested on: KM12
[18] = tested on: MDA-MB-231
[19] = tested on: HCC 2998
[20] = tested on: SNB-19

CCc1nc(N)nc(N)c1-c1ccc([N+](=O)[O-])c(Cl)c1
GI50 [1]: 2.19 µM (inactive) | GI50 [2]: 1.73 µM (inactive) | GI50 [3]: 4.27 µM (inactive) | GI50 [4]: 5.74 µM (inactive) | GI50 [5]: 2.65 µM (inactive) | GI50 [6]: 24.9 µM (inactive) | GI50 [7]: 34.7 µM (inactive) | GI50 [8]: 27 µM (inactive) | GI50 [9]: 3.76 µM (inactive) | GI50 [10]: 3.31 µM (inactive) | GI50 [11]: 5.83 µM (inactive) | GI50 [12]: 4.55 µM (inactive) | GI50 [13]: 0.42 µM (active) | GI50 [14]: 14.9 µM (inactive) | GI50 [15]: 2.36 µM (inactive) | GI50 [16]: 1.99 µM (inactive) | GI50 [17]: 6.87 µM (inactive) | GI50 [18]: 37.3 µM (inactive) | GI50 [19]: 10 µM (inactive) | GI50 [20]: 17.9 µM (inactive)

CCC(=O)NI1OC(=O)c2ccccc21
GI50 [1]: > 100 µM (inactive) | GI50 [2]: > 100 µM (inactive) | GI50 [3]: > 100 µM (inactive) | GI50 [4]: > 100 µM (inactive) | GI50 [5]: > 100 µM (inactive) | GI50 [6]: > 100 µM (inactive) | GI50 [7]: > 100 µM (inactive) | GI50 [8]: > 100 µM (inactive) | GI50 [9]: > 100 µM (inactive) | GI50 [10]: > 100 µM (inactive) | GI50 [11]: > 100 µM (inactive) | GI50 [12]: 21.6 µM (inactive) | GI50 [13]: > 100 µM (inactive) | GI50 [14]: > 100 µM (inactive) | GI50 [15]: 40.9 µM (inactive) | GI50 [16]: > 100 µM (inactive) | GI50 [17]: > 100 µM (inactive) | GI50 [18]: > 100 µM (inactive) | GI50 [19]: > 100 µM (inactive)

Cc1cc2c(SCc3ccccc3Cl)nc(N)nc2nc1C
GI50 [1]: > 100 µM (inactive) | GI50 [2]: > 100 µM (inactive) | GI50 [4]: > 100 µM (inactive) | GI50 [5]: > 100 µM (inactive) | GI50 [6]: > 100 µM (inactive) | GI50 [7]: > 100 µM (inactive) | GI50 [8]: > 100 µM (inactive) | GI50 [9]: > 100 µM (inactive) | GI50 [10]: > 100 µM (inactive) | GI50 [11]: > 100 µM (inactive) | GI50 [12]: > 100 µM (inactive) | GI50 [13]: > 100 µM (inactive) | GI50 [14]: > 100 µM (inactive) | GI50 [15]: > 100 µM (inactive) | GI50 [16]: > 100 µM (inactive) | GI50 [17]: > 100 µM (inactive) | GI50 [18]: > 100 µM (inactive) | GI50 [19]: > 100 µM (inactive) | GI50 [20]: > 100 µM (inactive)

O=C(O)C1C(=O)Oc2c(cccc2[N+](=O)[O-])C1O (centres undefined)
GI50 [1]: > 100 µM (inactive) | GI50 [2]: > 100 µM (inactive) | GI50 [3]: > 100 µM (inactive) | GI50 [4]: > 100 µM (inactive) | GI50 [5]: > 100 µM (inactive) | GI50 [6]: > 100 µM (inactive) | GI50 [7]: > 100 µM (inactive) | GI50 [8]: > 100 µM (inactive) | GI50 [9]: > 100 µM (inactive) | GI50 [10]: > 100 µM (inactive) | GI50 [11]: > 100 µM (inactive) | GI50 [12]: > 100 µM (inactive) | GI50 [13]: > 100 µM (inactive) | GI50 [14]: > 100 µM (inactive) | GI50 [15]: > 100 µM (inactive) | GI50 [16]: > 100 µM (inactive) | GI50 [18]: > 100 µM (inactive) | GI50 [19]: > 100 µM (inactive) | GI50 [20]: > 100 µM (inactive)

c1ccc(-c2nc3ccccc3n3c(CN4CCCCC4)nnc23)cc1
GI50 [1]: > 100 µM (inactive) | GI50 [2]: > 100 µM (inactive) | GI50 [3]: > 100 µM (inactive) | GI50 [4]: 93.5 µM (inactive) | GI50 [5]: > 100 µM (inactive) | GI50 [6]: 35.2 µM (inactive) | GI50 [7]: 35.1 µM (inactive) | GI50 [8]: 60 µM (inactive) | GI50 [9]: 51.3 µM (inactive) | GI50 [10]: 47.9 µM (inactive) | GI50 [11]: > 100 µM (inactive) | GI50 [12]: > 100 µM (inactive) | GI50 [13]: > 100 µM (inactive) | GI50 [14]: 80.2 µM (inactive) | GI50 [15]: > 100 µM (inactive) | GI50 [16]: > 100 µM (inactive) | GI50 [18]: 60 µM (inactive) | GI50 [19]: > 100 µM (inactive) | GI50 [20]: 36.2 µM (inactive)

O=[N+]([O-])c1ccc2c(c1)C1=C(CO2)Cc2ccccc2O1
GI50 [1]: 15.8 µM (inactive) | GI50 [2]: 19.4 µM (inactive) | GI50 [3]: > 10 µM (inactive) | GI50 [4]: 27.2 µM (inactive) | GI50 [5]: 20.6 µM (inactive) | GI50 [6]: 26.5 µM (inactive) | GI50 [7]: 37.9 µM (inactive) | GI50 [8]: 63.8 µM (inactive) | GI50 [9]: 23.9 µM (inactive) | GI50 [10]: 19.2 µM (inactive) | GI50 [11]: 30.3 µM (inactive) | GI50 [12]: 17.6 µM (inactive) | GI50 [14]: 28.8 µM (inactive) | GI50 [15]: 23.6 µM (inactive) | GI50 [16]: 25.6 µM (inactive) | GI50 [17]: 20.1 µM (inactive) | GI50 [18]: 27.4 µM (inactive) | GI50 [19]: 19.7 µM (inactive)
